Data as given in ChEMBL document CHEMBL5528071, “Discovery of Novel Steroid-Based Histamine H3 Receptor Antagonists/Inverse Agonists” (J Med Chem, 2024).

How the values were obtained:
Histamine H3 receptor [1] = molecular target: T1, Histamine H3 receptor (Homo sapiens, UniProt Q9Y5N1)
Description: Displacement of N-alpha-[methyl-3H]methylhistamine dihydrochloride from human Histamine H3 receptor expressed in CHO-K1 cell membrane assessed as inhibition constant incubated for 30 mins by liquid scintillation analyzer

Histamine H3 receptor [2] = molecular target: Histamine H3 receptor (Rattus norvegicus, UniProt Q9QYN8)
Description: Displacement of N-alpha-[methyl-3H]-methylhistamine dihydrochloride from Sprague-Dawley rat cerebral cortex membrane Histamine H3 receptor assessed as inhibition constant incubated for 30 mins by scintillation counter

[3] = Displacement of [3H]quinuclidinyl benzilate from Wistar rat cerebral cortex membrane muscarinic AChR assessed as inhibition constant by liquid scintillation counter
[4] = molecular target: Voltage-gated inwardly rectifying potassium channel KCNH2 (Homo sapiens, UniProt Q12809); experiment: Inhibition of human ERG expressed in CHO cells incubated for 7 to 10 mins by automated whole-cell patch clamp recordings; assay type: toxicity, cell-based
[5] = In vivo antagonist activity at Histamine H3 receptor in Wistar rat assessed as reduction in imetit-induced water intake pretreated with compound for 30 mins followed by imetit administration and measured after 30 mins by dipsogenia test; assay type: functional; conditions: 1 h, time 60 min
Rattus norvegicus [6] = species: Rattus norvegicus; experiment: Displacement of [3H]quinuclidinyl benzilate from Wistar rat cerebral cortex membrane muscarinic AChR at 1 uM by liquid scintillation counter relative to control; assay type: cell membranes
Histamine H3 receptor [7] = molecular target: T1, Histamine H3 receptor; experiment: Antagonist activity at human Histamine H3 receptor
hERG (KCNH2) [8] = molecular target: T2, hERG (KCNH2) (Homo sapiens, UniProt Q12809); experiment: Inhibition of human ERG expressed in CHO cells at 1 uM incubated for 7 to 10 mins by automated whole-cell patch clamp recordings relative to control; conditions: CHO cells expressing human ERG
hERG (KCNH2) [9] = molecular target: T2, hERG (KCNH2); experiment: Inhibition of human ERG expressed in CHO cells at 3 uM incubated for 7 to 10 mins by automated whole-cell patch clamp recordings relative to control; conditions: CHO cells expressing human ERG
[10] = Bioavailability in Wistar rat at 10 mg/kg, po or 3 mg/kg, iv measured after 24 hrs by HPLC-MS/MS analysis; assay type: ADME, organism-based; conditions: in vivo
Rattus norvegicus [11] = experiment: Cognitive enhancing effect in Hannover Wistar rat model of delay-induced natural forgetting assessed as reversal of exploration time by measuring minimal effective dose orally administered for 30 mins by novel object recognition test; assay type: functional; conditions: 0.5 h, route po, read-out: MED
[12] = Ratio of drug concentration in Hannover Wistar rat brain to plasma administered orally for 2 days and measured 1 hrs post last dose by HPLC-MS/MS analysis; assay type: ADME; conditions: route po, read-out: BPR
Mus musculus = experiment: Cognitive enhancing effect in scopolamine-induced NMRI mouse model assessed as reversal of exploration time by measuring minimum effective dose preadministered orally for 30 mins followed by scopolamine administration by place recognition test; assay type: functional; conditions: 0.5 h, route po, read-out: MED

Histamine H3 receptor (Rattus norvegicus, UniProt Q9QYN8), sequence (Q9QYN8 whole entry): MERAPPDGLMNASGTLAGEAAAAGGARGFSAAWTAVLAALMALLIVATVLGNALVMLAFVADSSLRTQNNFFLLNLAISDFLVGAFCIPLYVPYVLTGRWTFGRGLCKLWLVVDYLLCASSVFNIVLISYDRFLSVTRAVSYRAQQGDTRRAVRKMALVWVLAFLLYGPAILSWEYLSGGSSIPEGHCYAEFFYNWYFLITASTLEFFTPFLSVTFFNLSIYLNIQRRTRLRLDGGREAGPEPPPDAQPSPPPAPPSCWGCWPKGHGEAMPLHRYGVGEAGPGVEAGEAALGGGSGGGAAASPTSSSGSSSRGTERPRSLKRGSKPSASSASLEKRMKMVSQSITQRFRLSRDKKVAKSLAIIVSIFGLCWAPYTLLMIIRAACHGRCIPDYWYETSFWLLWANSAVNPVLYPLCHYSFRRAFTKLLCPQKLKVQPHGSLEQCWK
T1 sequence (Q9Y5N1 whole entry): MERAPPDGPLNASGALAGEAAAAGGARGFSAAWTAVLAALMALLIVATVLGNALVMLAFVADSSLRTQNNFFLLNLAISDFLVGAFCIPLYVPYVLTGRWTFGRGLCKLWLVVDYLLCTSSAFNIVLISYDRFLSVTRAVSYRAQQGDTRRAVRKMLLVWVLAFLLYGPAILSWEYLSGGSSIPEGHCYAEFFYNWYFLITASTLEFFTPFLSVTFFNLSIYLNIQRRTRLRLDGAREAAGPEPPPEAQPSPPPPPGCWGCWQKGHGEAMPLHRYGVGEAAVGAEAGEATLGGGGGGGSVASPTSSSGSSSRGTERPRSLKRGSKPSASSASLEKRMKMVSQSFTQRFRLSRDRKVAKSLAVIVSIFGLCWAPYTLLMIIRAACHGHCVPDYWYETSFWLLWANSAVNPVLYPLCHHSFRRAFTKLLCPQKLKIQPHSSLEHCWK
Voltage-gated inwardly rectifying potassium channel KCNH2, sequence (Q12809 whole entry): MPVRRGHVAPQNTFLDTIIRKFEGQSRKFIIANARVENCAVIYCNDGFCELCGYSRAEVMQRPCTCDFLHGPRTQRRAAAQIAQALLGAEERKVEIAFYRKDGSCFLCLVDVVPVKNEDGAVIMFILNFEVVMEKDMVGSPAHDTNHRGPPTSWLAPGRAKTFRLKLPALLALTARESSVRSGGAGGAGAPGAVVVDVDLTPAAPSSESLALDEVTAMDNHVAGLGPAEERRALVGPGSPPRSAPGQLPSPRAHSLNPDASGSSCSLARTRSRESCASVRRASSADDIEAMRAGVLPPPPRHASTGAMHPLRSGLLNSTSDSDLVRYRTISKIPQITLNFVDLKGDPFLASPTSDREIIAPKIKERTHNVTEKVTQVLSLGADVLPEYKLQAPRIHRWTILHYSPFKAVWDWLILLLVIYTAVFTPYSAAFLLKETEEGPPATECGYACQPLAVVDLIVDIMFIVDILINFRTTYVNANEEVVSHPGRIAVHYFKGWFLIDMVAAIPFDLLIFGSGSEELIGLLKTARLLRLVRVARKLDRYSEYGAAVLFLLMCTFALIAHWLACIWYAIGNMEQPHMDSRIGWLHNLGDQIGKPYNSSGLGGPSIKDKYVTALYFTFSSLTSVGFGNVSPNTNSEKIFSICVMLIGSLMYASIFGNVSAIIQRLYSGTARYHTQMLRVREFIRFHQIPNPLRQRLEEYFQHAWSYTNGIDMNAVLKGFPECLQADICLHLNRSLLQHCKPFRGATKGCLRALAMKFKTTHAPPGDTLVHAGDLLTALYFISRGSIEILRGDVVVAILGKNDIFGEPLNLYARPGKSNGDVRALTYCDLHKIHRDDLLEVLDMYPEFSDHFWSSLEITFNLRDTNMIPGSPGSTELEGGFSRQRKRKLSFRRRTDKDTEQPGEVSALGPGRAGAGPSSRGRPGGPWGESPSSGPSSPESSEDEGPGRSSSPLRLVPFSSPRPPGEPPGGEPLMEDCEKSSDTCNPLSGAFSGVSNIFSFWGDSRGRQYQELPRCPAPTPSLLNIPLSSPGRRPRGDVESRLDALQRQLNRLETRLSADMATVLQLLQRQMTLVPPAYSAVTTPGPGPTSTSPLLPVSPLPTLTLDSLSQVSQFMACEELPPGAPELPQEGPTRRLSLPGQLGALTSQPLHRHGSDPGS
T2 sequence (Q12809 whole entry): as above

SMILES: C[C@@H]1CCCN1CCCOc1ccc2c(c1)CC[C@@H]1[C@@H]2CC[C@@]2(C)[C@H]1CCCN2C(=O)c1ccccc1
- Ki (Histamine H3 receptor [1]): 11.6 nM

SMILES: C[C@@H]1CCCN1CCCOc1ccc2c(c1)CC[C@H]1[C@H]3[C@@H]4C[C@@H]4C(=O)N[C@@]3(C)CC[C@H]21
- Ki (Histamine H3 receptor [1]): 2.4 nM
- Ki (Histamine H3 receptor [2]): 9.9 nM
- Ki [3]: 3600 nM
- IC50 [4]: 5000 nM
- ED50 [5]: 0.33 mg/kg

SMILES: CC(=O)N1CCC[C@H]2[C@@H]3CCc4cc(OCCCN5CCC[C@H]5C)ccc4[C@H]3CC[C@@]21C
- Ki (Histamine H3 receptor [1]): 6.9 nM
- Ki (Histamine H3 receptor [2]): 15.9 nM
- IC50 [4]: 10000 nM

SMILES: C[C@@H]1C[C@@H]2[C@@H]3CCc4cc(OCCCN5CCC[C@H]5C)ccc4[C@H]3CC[C@]2(C)N(C)C1=O
- Ki (Histamine H3 receptor [1]): 1.5 nM
- Ki (Histamine H3 receptor [2]): 3.8 nM
- IC50 [4]: 2700 nM

SMILES: C[C@@H]1CCCN1CCCOc1ccc2c(c1)CC[C@@H]1[C@@H]2CC[C@]2(C)NC(=O)CC[C@H]12
- IC50 [4]: 22000 nM

SMILES: CN1CCC[C@H]2[C@@H]3CC[C@H]4C[C@@H](OC(=O)CCN5CCCC5)CC[C@]4(C)[C@H]3CC[C@@]21C
- Ki (Histamine H3 receptor [1]): 10.6 nM
- Activity (Rattus norvegicus [6]): 44%

SMILES: C[C@@H]1CCCN1CCCOc1ccc2c(c1)CC[C@H]1[C@@H]3[C@@H]4C[C@@H]4C(=O)N[C@@]3(C)CC[C@H]21
- Ki (Histamine H3 receptor [1]): 4.9 nM
- Ki (Histamine H3 receptor [2]): 9.4 nM
- IC50 [4]: 11700 nM
- ED50 [5]: 1.5 mg/kg

SMILES: C[C@@H]1CC(=O)N(C)[C@@]2(C)CC[C@@H]3c4ccc(OCCCN5CCC[C@H]5C)cc4CC[C@H]3[C@H]12
- Ki (Histamine H3 receptor [1]): 2.4 nM
- Ki (Histamine H3 receptor [2]): 2.2 nM
- IC50 [4]: 8800 nM
- ED50 [5]: 0.48 mg/kg

SMILES: C[C@@H]1CCCN1CCCOc1ccc2c(c1)CC[C@H]1[C@@H]3[C@@H]4C[C@@H]4C(=O)N(C)[C@@]3(C)CC[C@H]21
- Ki (Histamine H3 receptor [1]): 1 nM
- Ki (Histamine H3 receptor [2]): 3.3 nM
- IC50 [4]: 7700 nM
- ED50 [5]: 1.4 mg/kg

SMILES: C[C@@H]1CCCN1CCCOc1ccc2c(c1)CC[C@H]1[C@@H]3[C@H](C#N)CC(=O)N[C@@]3(C)CC[C@H]21
- Ki (Histamine H3 receptor [1]): 8.6 nM
- Ki (Histamine H3 receptor [2]): 20.5 nM
- Ki [3]: 2400 nM
- IC50 [4]: 24000 nM
- ED50 [5]: 3.6 mg/kg

SMILES: C[C@@H]1CCCN1CCCOc1ccc2c(c1)CC[C@@H]1[C@@H]2CC[C@]2(C)NC(=O)CC[C@@H]12
- IC50 [4]: 3700 nM

SMILES: C[C@]12CC[C@@H]3c4ccc(OCCCN5CCCC5)cc4CC[C@H]3[C@@H]1CCCN2C=O
- Ki (Histamine H3 receptor [1]): 1.8 nM
- Ki (Histamine H3 receptor [2]): 21.8 nM
- IC50 [4]: 6000 nM
- Activity (Rattus norvegicus [6]): 13%

SMILES: CN1CCC[C@H]2[C@@H]3CCc4cc(OCCCN5CCCC5)ccc4[C@H]3CC[C@@]21C
- Ki (Histamine H3 receptor [1]): 0.9 nM
- Ki (Histamine H3 receptor [2]): 5.1 nM
- Activity (Rattus norvegicus [6]): 69%

SMILES: NC(=O)c1ccc([C@@H]2C[C@H]2C(=O)N2CCN(C3CCC3)CC2)cc1
- Ki (Histamine H3 receptor [7]): 0.501 nM

SMILES: CCC(=O)N1CCC[C@H]2[C@@H]3CCc4cc(OCCCN5CCC[C@H]5C)ccc4[C@H]3CC[C@@]21C
- Ki (Histamine H3 receptor [1]): 8 nM
- Ki (Histamine H3 receptor [2]): 37.3 nM
- Ki [3]: 1700 nM
- IC50 [4]: > 10000 nM

SMILES: C[C@@H]1CCCN1CCCOc1ccc2c(c1)CC[C@@H]1[C@@H]2CC[C@@]2(C)[C@H]1CCCN2C(=O)C1CCOC1 (some centres not stated)
- Ki (Histamine H3 receptor [2]): 96 nM

SMILES: CC(=O)N[C@]12CCC(=O)N[C@@]1(C)CC[C@@H]1c3ccc(OCCCN4CCC[C@H]4C)cc3CC[C@H]12
- Ki (Histamine H3 receptor [1]): 15.1 nM
- inhibition at 1 µM (hERG (KCNH2) [8]): 3%
- Ki (Histamine H3 receptor [2]): 14.5 nM
- inhibition at 3 µM (hERG (KCNH2) [9]): 8%

SMILES: C[C@@H]1CCCN1CCCOc1ccc2c(c1)CC[C@H]1[C@@H]3[C@H](C#N)CC(=O)N(C)[C@@]3(C)CC[C@H]21
- Ki (Histamine H3 receptor [1]): 2 nM
- Ki (Histamine H3 receptor [2]): 7.2 nM
- IC50 [4]: 10400 nM
- ED50 [5]: 0.78 mg/kg

SMILES: C[C@@H]1CCCN1CCCOc1ccc2c(c1)CC[C@H]1C3=CCC(=O)N(C)[C@@]3(C)CC[C@H]21
- Ki (Histamine H3 receptor [1]): 1.1 nM
- Ki (Histamine H3 receptor [2]): 5.7 nM
- Ki [3]: 1500 nM
- IC50 [4]: 8600 nM
- ED50 [5]: 0.22 mg/kg

SMILES: C[C@]12CC[C@@H]3c4ccc(OCCCN5CCCC5)cc4CC[C@H]3[C@@H]1CCCN2
- Ki (Histamine H3 receptor [1]): 1.5 nM
- Ki (Histamine H3 receptor [2]): 30.2 nM
- Activity (Rattus norvegicus [6]): 36%

SMILES: C[C@@H]1CCCN1CCCOc1ccc2c(c1)CC[C@@H]1[C@@H]2CC[C@@]2(C)NC(=O)CC[C@@H]12
- IC50 [4]: > 30000 nM

SMILES: C[C@@H]1C[C@H]2[C@@H]3CCc4cc(OCCCN5CCC[C@H]5C)ccc4[C@H]3CC[C@]2(C)NC1=O
- Ki (Histamine H3 receptor [1]): 4.1 nM
- Ki (Histamine H3 receptor [2]): 9 nM
- Ki [3]: 2700 nM
- IC50 [4]: 14500 nM
- ED50 [5]: 0.86 mg/kg

SMILES: C[C@@H]1CC(=O)N[C@@]2(C)CC[C@@H]3c4ccc(OCCCN5CCC[C@H]5C)cc4CC[C@H]3[C@H]12
- Ki (Histamine H3 receptor [1]): 2.2 nM
- Ki (Histamine H3 receptor [2]): 24.8 nM
- Ki [3]: 2500 nM
- IC50 [4]: 11000 nM
- ED50 [5]: 1.3 mg/kg

SMILES: C[C@@H]1CCCN1CCCOc1ccc2c(c1)CC[C@@H]1[C@@H]2CC[C@@]2(C)[C@@H]1CCC(=O)N2C
- IC50 [4]: 9600 nM
- ED50 [5]: 0.23 mg/kg

SMILES: C[C@@H]1CCCN1CCCOc1ccc2c(c1)CC[C@@H]1[C@@H]2CC[C@@]2(C)[C@H]1CCC(=O)N2C
- bioavailability [10]: 63.7%
- minimal effective dose (Rattus norvegicus [11]): 0.3 mg/kg
- IC50 [4]: 9900 nM
- Kp at 49 h [12]: 1.4
- minimal effective dose (Mus musculus): 0.1 mg/kg
- ED50 [5]: 0.4 mg/kg

SMILES: C[C@@H]1CCCN1CCCOc1ccc2c(c1)CC[C@H]1C3=CCC(=O)N[C@@]3(C)CC[C@H]21
- bioavailability [10]: 63.8%
- Ki (Histamine H3 receptor [2]): 6.8 nM
- IC50 [4]: 18700 nM
- Kp at 49 h [12]: 0.6
- minimal effective dose (Mus musculus): 0.3 mg/kg
- ED50 [5]: 0.12 mg/kg

SMILES: C[C@@H]1CCCN1CCCOc1ccc2c(c1)CC[C@@H]1[C@@H]2CC[C@@]2(C)[C@H]1CCCN2C(=O)C(C)(C)C
- Ki (Histamine H3 receptor [1]): 7.8 nM
- Ki (Histamine H3 receptor [2]): 55.2 nM
- Ki [3]: 816 nM

SMILES: C[C@]12CC[C@@H]3c4ccc(OCCCN5CCCC5)cc4CC[C@H]3[C@@H]1CCCN2CCO
- Ki (Histamine H3 receptor [1]): 3.4 nM
- Ki (Histamine H3 receptor [2]): 10.5 nM
